Laboratory results reported in patent US6440935B1, “Inhibition of eucaryotic pathogens and neoplasms and stimulation of fibroblasts and lymphocytes with lytic peptides” (priority 1987, dated 2002).
Like-named read-outs stand apart in the source and are kept apart here. Residues, ends and D or L forms follow the SMILES beside them. No end group written: not given here.

Legend:
Brucella abortus [1] = type: in vivo, BALB/C mice; conditions: 0.176 mg/day for 4 days from day 12 post infection; sacrificed day 16; control 8.15 × 10^3
Saccharomyces cerevisiae = assay: Effect of lytic peptides on S. cerevisiae (plate count); conditions: 1 hour at 37° C., PBS pH 6.8, 500 at 0 μM
EL-4 cells = assay: EL-4 cytotoxicity by chromium release; type: cell-based; conditions: 30 minutes, 10^6 EL-4 cells
Protocol: (§1) The EL-4 cells were then incubated for 30 minutes in the presence of various peptides at different concentrations. Cytotoxicity was taken as a percentage of chromium released (measured in the culture supernatant) relative to the chromium released by EL-4 cells lysed by detergent.
(§2) Similar chromium release data were obtained using the same procedure with a 100 μM concentration of peptide, but with EL-4 cell concentrations of 2×10^6, 10^6, and 5×10^5 cells in 0.5 ml medium.
(§3) The chromium release data was also obtained by using the supernatant from unlabeled EL-4 cells cultured for 30 minutes in the presence of 100 μM peptide as medium for […] EL-4 cultured as described above. The percent cytotoxicity calculated as described above was 20.16 for cecropin SB-37, 19.73 for *cecropin SB-37, 41.96 for Shiva 1, and 106.67 for melittin.

[2] = EL-4 cytotoxicity by chromium release; type: cell-based; conditions: for cytotoxicity at 30 min, 100 μM: mouse, EL-4 cells
Protocol: as §1, §2, §3

Brucella abortus [3] = type: cell-based; conditions: 50 μM
[4] = tested on: Plasmodium falciparum in human red blood cells; conditions: for 3H-Hypoxanthine Uptake: 24 hours
E. coli E/2/64 = assay: Lysozyme/cecropin synergism against E. coli (plate growth)
[5] = S. intermedius 19930 viability in lytic peptide/lysozyme; conditions: Viability (%), lysozyme at ten times
[6] = tested on: T. cruzi intracellular amastigotes in Vero cells; assay: In vitro effect on T. cruzi intracellular amastigotes in Vero cells; type: cell-based, Trypanosoma cruzi; conditions: one hour period, relative to no peptide
Protocol: Vero cells at 10^5 cells/ml in MEM-FBS were mixed with Trypanosoma Cruzi in the trypomastigote stage at 10^5 cells/ml in the same medium at a 1:1 ratio of Vero cells to trypomastigotes. The mixture of Vero cells and trypomastigotes was cultured at 37° C. in a 5% CO2 atmosphere in microscope slide chambers. At 24 hours, cecropin SB-37 was added to the chambers, except for a set of controls, at a final concentration of 100 μM. […]

[7] = EL-4 cell viability by trypan blue exclusion; type: cell-based; conditions: one hour, 95% at 0 μM
Protocol: EL-4 lymphoma cells were suspended in RPMI 1640 at 5,000,000/ml with 500,000 cells per well. Various concentrations of cecropin SB-37 and Shiva 1 were added and the wells incubated at 37° C. in a 5% CO2 atmosphere for one hour. Viability was determined by microscopic observation for trypan blue exclusion.

mammary carcinoma = assay: In vivo effect on murine mammary carcinoma; parameters: species or system BALB/c mouse; conditions: 1.76 mg (88 mg/kg) daily, three days, injected directly into the carcinoma
Protocol: One BALB/c mouse was given daily injections of 1.76 mg (88 mg/kg) Shiva 1 in PBS for three consecutive days as described in the foregoing examples.

eucaryotes = assay: Lytic activity, general statements of the description; conditions: general statement, no test described
[8] = tested on: Erwinia caratovora subsp. carotova; assay: Plant pathogen LD50 in cecropin SB-37/lysozyme; type: cell-based; conditions: incubation at 30° C.
[9] = tested on: Pseudomonas syringae pv. tabaci; assay: Plant pathogen LD50 in cecropin SB-37/lysozyme; type: cell-based; conditions: incubation at 30° C.
[10] = tested on: Xanthomonas campestris pv. campestris; assay: Plant pathogen LD50 in cecropin SB-37/lysozyme; type: cell-based; conditions: incubation at 30° C.
[11] = 100 μM, 2 × 10^6 cells per 0.5 ml, read-out: Percent Cytotoxicity
[12] = supernatant from unlabeled EL-4 cells cultured 30 minutes with 100 μM peptide used as medium for labeled EL-4, read-out: percent cytotoxicity

CN(C)[C@@H]1C(O)=C(C(N)=O)C(=O)[C@@]2(O)C(O)=C3C(=O)c4c(O)cccc4[C@@](C)(O)[C@H]3C[C@@H]12 [Tetracycline, tetracycline]
Concentration of Brucella abortus in spleen tissue (Brucella abortus [1]): 4.4 × 10^3 Number per gram of spleen

CC[C@H](C)[C@H](NC(=O)CN)C(=O)NCC(=O)N[C@@H](C)C(=O)N[C@H](C(=O)N[C@@H](CC(C)C)C(=O)N[C@@H](CCCCN)C(=O)N[C@H](C(=O)N[C@@H](CC(C)C)C(=O)N[C@H](C(=O)N[C@H](C(=O)NCC(=O)N[C@@H](CC(C)C)C(=O)N1CCC[C@H]1C(=O)N[C@@H](C)C(=O)N[C@@H](CC(C)C)C(=O)N[C@H](C(=O)N[C@@H](CO)C(=O)N[C@@H](Cc1c[nH]c2ccccc12)C(=O)N[C@H](C(=O)N[C@@H](CCCCN)C(=O)N[C@@H](CCCNC(=N)N)C(=O)N[C@@H](CCCCN)C(=O)N[C@@H](CCCNC(=N)N)C(=O)N[C@@H](CCC(N)=O)C(=O)N[C@@H](CCC(N)=O)C(N)=O)[C@@H](C)CC)[C@@H](C)CC)[C@@H](C)O)[C@@H](C)O)C(C)C)C(C)C [Melittin, reference compound]
Plate Count (Thousands) (Saccharomyces cerevisiae; 5 μM): 260 Thousands
Plate Count (Thousands) (Saccharomyces cerevisiae; 50 μM): 0 Thousands
Percent Cytotoxicity (chromium release vs detergent-lysed cells) (EL-4 cells; 10 μM): 109.65%
Percent Cytotoxicity (chromium release vs detergent-lysed cells) (EL-4 cells; 25 μM): 106.65%
Percent Cytotoxicity (chromium release vs detergent-lysed cells) (EL-4 cells; 50 μM): 106.81%
Percent Cytotoxicity (chromium release vs detergent-lysed cells) (EL-4 cells; 100 μM): 102.43%
cytotoxicity at 30 min, 100 μM [2, 11]: 105%
cytotoxicity at 30 min, 100 μM [2, 12]: 107%

Cecropin B: naturally occurring potent bacteriolytic peptide obtainable from insects; sequence in Table 1 (KWKVFKKIEKMGRNIRNGIVKAGPAIAVLGEAKAL; ends and bridges not checked; UniProt P01508 27-61, looked up)
Results (growth of Brucella abortus) (Brucella abortus [3]): No growth
Plate Count (Thousands) (Saccharomyces cerevisiae; 5 μM): 500 Thousands
Plate Count (Thousands) (Saccharomyces cerevisiae; 50 μM): 75 Thousands
Plate Count (Thousands) (Saccharomyces cerevisiae; 750 μM): 0 Thousands
3H-Hypoxanthine Uptake ([4]; 1 μM, P. falciparum 0.0625 PPRC): 380 cpm
3H-Hypoxanthine Uptake ([4]; 1 μM, P. falciparum 0.125 PPRC): 565 cpm
3H-Hypoxanthine Uptake ([4]; 1 μM, P. falciparum 0.25 PPRC): 1293 cpm
3H-Hypoxanthine Uptake ([4]; 1 μM, P. falciparum 0.5 PPRC): 2860 cpm
3H-Hypoxanthine Uptake ([4]; 20 μM, P. falciparum 0.0625 PPRC): 405 cpm
3H-Hypoxanthine Uptake ([4]; 20 μM, P. falciparum 0.125 PPRC): 495 cpm
3H-Hypoxanthine Uptake ([4]; 20 μM, P. falciparum 0.25 PPRC): 1066 cpm
3H-Hypoxanthine Uptake ([4]; 20 μM, P. falciparum 0.5 PPRC): 2333 cpm
3H-Hypoxanthine Uptake ([4]; 200 μM, P. falciparum 0.0625 PPRC): 25 cpm
3H-Hypoxanthine Uptake ([4]; 200 μM, P. falciparum 0.125 PPRC): 20 cpm
3H-Hypoxanthine Uptake ([4]; 200 μM, P. falciparum 0.25 PPRC): 40 cpm
3H-Hypoxanthine Uptake ([4]; 200 μM, P. falciparum 0.5 PPRC): 50 cpm
growth of E. coli (plate counts) (E. coli E/2/64; 5 μM, 90 minutes at room temperature): no growth of E. coli
growth of E. coli (E. coli E/2/64; one nanomolar and one micromolar): positive E. coli growth

CC[C@H](C)[C@H](NC(=O)CNC(=O)[C@H](CCC(N)=O)NC(=O)[C@H](CCCCN)NC(=O)[C@@H](NC(=O)[C@H](CCC(N)=O)NC(=O)[C@H](CCCCN)NC(=O)CNC(=O)[C@@H](NC(=O)[C@H](CCCNC(=N)N)NC(=O)[C@H](CC(=O)O)NC(=O)[C@@H](NC(=O)[C@H](CCCNC(=N)N)NC(=O)[C@H](CCCNC(=N)N)NC(=O)[C@H](Cc1ccccc1)NC(=O)[C@H](CC(C)C)NC(=O)[C@H](CCCNC(=N)N)NC(=O)[C@H](Cc1c[nH]c2ccccc12)NC(=O)[C@H](CCCNC(=N)N)NC(=O)[C@@H]1CCCN1C(=O)[C@@H](N)CCSC)[C@@H](C)CC)C(C)C)[C@@H](C)CC)C(=O)N[C@@H](CC(C)C)C(=O)N[C@@H](CCCNC(=N)N)C(=O)N[C@@H](C)C(=O)NCC(=O)N1CCC[C@H]1C(=O)N[C@@H](C)C(=O)N[C@H](C(=O)N[C@@H](C)C(=O)N[C@@H](CC(C)C)C(=O)N[C@H](C(=O)NCC(=O)N[C@@H](CC(=O)O)C(=O)N[C@@H](C)C(=O)N[C@@H](CCCNC(=N)N)C(=O)N[C@@H](C)C(=O)N[C@H](C(=O)NCC(N)=O)C(C)C)C(C)C)[C@@H](C)CC [Shiva 1] (H-MPRWRLFRRIDRVGKQIKQGILRAGPAIALVGDARAVG-NH2)
viability at 0.01 µM ([5]; peptide concentration 0.01 μM): 100%
viability at 0.1 µM ([5]; peptide concentration 0.1 μM): 81.8%
viability at 0.5 µM ([5]; peptide concentration 0.5 μM): 65%
viability at 1 µM ([5]; peptide concentration 1.0 μM): 42.1%
viability at 5 µM ([5]; peptide concentration 5.0 μM): 35.2%
viability ([5]; peptide concentration 10. μM): 1.2%
viability ([5]; peptide concentration 50. μM): 0%
Percent Cytotoxicity (chromium release vs detergent-lysed cells) (EL-4 cells; 10 μM): 0.37%
Percent Cytotoxicity (chromium release vs detergent-lysed cells) (EL-4 cells; 25 μM): 16.7%
Percent Cytotoxicity (chromium release vs detergent-lysed cells) (EL-4 cells; 50 μM): 42.73%
Percent Cytotoxicity (chromium release vs detergent-lysed cells) (EL-4 cells; 100 μM): 82.35%
cytotoxicity at 100 µM [2, 11]: 84.9%
cytotoxicity at 100 µM ([2]; 100 μM, 5 × 10^5 cells per 0.5 ml, read-out: Percent Cytotoxicity): 98.7%
cytotoxicity at 100 µM ([2]; 100 μM, 10^6 cells per 0.5 ml, read-out: Percent Cytotoxicity): 89.2%
cytotoxicity [2, 12]: 42%
LD50 (concentration for 50% reduction in 3H-hypoxanthine uptake) ([4]; 24-hour period, relative to untreated infected red blood cells): about 10 μM
LD50 (concentration for 50% reduction in number of infected Vero cells) [6]: about 9 μM
viability ([7]; 10 μM): 85%
viability ([7]; 25 μM): 60%
viability ([7]; 50 μM): 50%
viability ([7]; 100 μM): 10%
immediate cause of death at autopsy (mammary carcinoma): shock
outcome following the third injection (mammary carcinoma; one mouse): died almost immediately
viability: 0%
viability at 0.01 µM: 100%
viability at 0.1 µM: 69.6%
viability at 1 µM: 37.9%
viability at 5 µM: 1.5%
viability at 7.5 µM: 0.1%

cecropin A
lytic activity compared with other lytic peptides (eucaryotes): about as lytically active as cecropin B and SB-37

Lysozyme
Viability (%) (Pseudomonas aeruginosa): 0.4%
Viability (%) (Pseudomonas aeruginosa; 0.01 µM): 100%
Viability (%) (Pseudomonas aeruginosa; 0.1 µM): 82.2%
Viability (%) (Pseudomonas aeruginosa; 1 µM): 52.1%
Viability (%) (Pseudomonas aeruginosa; 5 µM): 7.9%
Viability (%) (Pseudomonas aeruginosa; 7.5 µM): 0.6%
LD50 (Pseudomonas solanacearum): >1000 µM
LD50 [8]: >1000 µM
LD50 [9]: >1000 µM
LD50 [10]: >1000 µM
Viability (%) (S. intermedius 19930; 0.01 µM): 100%
Viability (%) (S. intermedius 19930; 0.1 µM): 100%
Viability (%) (S. intermedius 19930; 0.5 µM): 81.3%
Viability (%) (S. intermedius 19930; 1 µM): 53%
Viability (%) (S. intermedius 19930; 5 µM): 49.5%
